Measurements as given in patent US20240034761A1, “REGENERATION OF MAMMALIAN TISSUES USING SYNTHETIC IMMODULINS” (priority 2022, published 2024).
Marks after values point to notes of the source that are not given here. Peptide text beside a SMILES is read from it.

What was measured:
[1] = system: HFF-1 human fibroblast cell line; assay: Collagen stimulating activity in HFF-1 dermal fibroblasts (Collagen-1 ELISA); assay type: cell-based; conditions: peptide 2 uM, 72 hour; control (buffer) set to 100
Description: Immodulin peptides have potential untility in the field of cosmetics. HFF-1 human fibroblast cell line was obtained from the American Type Culture Collection (ATCC). Cells were grown in a T-75 flask in DMEM Medium containing 10% fetal bovine serum and penicillin-streptomycin at 37° C. in a humidified, 5% CO2 incubator. Cells ([…], 2,000 cells/well) were plated in a 96-well plate and incubated overnight at 37° C. in a humidified, 5% CO2 incubator. Next day, […] of compounds were added (quadruplicate wells). After 72 hour incubation with the compound, supernatants were collected for Collagen-1 ELISA assay and cell viability was measured in a luminometer after the addition of […] CellTiterGlo reagent (Promega Inc, Madison, WI) as recommended by the manufacturer. Collagen stimulating activity of immodulin peptides in HFF-1 dermal fibroblasts: Peptides were added to cells at 2 uM. Collagen-1A1 (COL1) immunoreactivity was measured in the supernatants of cultured cells by ELISA using a rabbit monoclonal anti-COL1 primary antibody (Abcam, Cambridge, MA). Control (buffer) value of immunoreactivity was set to 100.

[2] = Plate binding of FITC-labelled heparin to immobilised biotinylated peptides; conditions: 400 ng peptide/well, 1 ug FITC-heparin, PBS; normalized to immX3 peptide binding = 100
Description: (§1) Effects of pH, PIP2 and size classes: Streptavidin-coated 96-well plates (G-Biosciences, St. Louis, MO) were pre-loaded with biotinylated peptides [see Example 1] at 400 ng/well, at room temperature for 60 minutes. The plate was washed with PBS buffer and then 1 ug FITC-labelled heparin or hyaluronic acid (FITC-HMW-HA) in 100 uL PBS buffer was added per well (all tests done in quadruplicate). Incubation proceeded for 90 minutes at room temperature, followed by two PBS washes. The plate was read in a standard laboratory fluorometer (488/525 nm exitation/[…]) and the counts normalized for immX3 peptide binding=100. Values statistically above background are shown in bold font. **p<0.05 versus immX3AVD.

[3] = Plate binding of FITC-labelled hyaluronic acid to immobilised biotinylated peptides; conditions: 400 ng peptide/well, 1 ug FITC-HMW-HA, PBS; normalized to immX3 peptide binding = 100
Description: as §1

[4] = system: THP1-Dual monocyte reporter cell line; assay: THP1-Dual myeloid cell differentiation assay (PMA protocol); assay type: cell-based, human; conditions: PMA 24 h, then peptide 0.33 uM or 0.66 uM 24 h; for CD169+ (AU): relative to immX3AVD = 100; for CCL22: culture supernatant
Description: (§2) Mammalian cell differentiation assays employed the THP1-Dual monocyte reporter cell line (Invivogen Inc, San Diego, CA) seeded at 2×10e5 cells per well in 96-well plates and cultured at 37 degrees C. in RPMI-1640 growth medium plus 10% fetal bovine serum and 1% penicillin/streptomycin. Cells were subsequently treated for 24 hours with 100 ng/ml Phorbol 12-myristate 13-acetate (PMA protocol; Cayman Chemical Company, Ann Arbor, MI). Peptide (0.33 uM or 0.66 uM, as indicated) was then added, and incubation continued for an additional 24 hours. Culture supernatants were assayed for CCL22. Plates with adherent cells were washed with PBS and assayed for immunoreactivity of surface markers such as CD169, Clec9a or Clec12a using fuorescent tag- or biotin-labeled anti-human antibodies purchased from Miltenyi Biotec (Auburn, CA) and the secondary detection reagent recommended by the manufacturer.

[5] = PIP-binding membrane assay (Membrane Lipid Strips); design: key: —: −−− no binding; +++ strong binding; conditions: 400 ng peptide
Description: N-terminally biotinylated versions of the peptides listed below were used in various assays listed in the examples. For the two types of phosphatidylinositon phosphate (PIP)-binding assays, imm1-imm6 peptides were used.
In the PIP-binding membrane assay, 400 ng of each peptide was bound to Membrane Lipid Strips (Catalog # P-6002, Echelon Biosciences, Salt Lake City, UT) and developed according to the manufacturer's instructions. Binding to PIPs was as follows (−−− no binding; +++ strong binding): […]

[6] = Plate assay: biotinylated peptide on streptavidin plates, FITC-labelled PIP2; assay type: binding; conditions: 400 ng peptide per well; for FITC-PIP2 fluorescence, Background Control: EDTA background; for FITC-PIP2 fluorescence, Ferric Iron: with ferric iron; for FITC-PIP2 fluorescence, Zinc: with zinc
Description: In the plate assay, biotinylated peptides imm3 and imm5 were bound to 96-well, streptavidin-coated plates (BioLegend corporaton, San Diego, CA) at 400 ng per well in PBS buffer at room temperature for 60 mins. Plates were washed in PBS and developed with FITC-labelled PIP2 (purchased from Cayman Chemical Co, Ann Arbor, MI). Fluorescence was counted in a laboratory fluorescence spectrophotometer. The results were as follows (EDTA background set to =100; **p<0.01 vs background control): […]

[7] = Second binding experiment: FITC-HMW-HA binding with holotransferrin, pH and cold competitors; design: key to FITC-HMW-HA binding, +cold LMW-HA / FITC-HMW-HA binding, +cold HMW-HA: fluorescence counts normalized to peptide binding control = 100; conditions: holotransferrin 10 ug/well; for FITC-HMW-HA binding, +cold HMW-HA: HMW-HA 10 ug/well; for FITC-HMW-HA binding, +cold LMW-HA: LMW-HA hexamer 10 ug/well; for FITC-HMW-HA binding, +cold PIP2: excess PIP2 500 ng/well
Description: as §1
A second binding experiment was done as above, but using either 6 mM sodium phosphate buffer pH 7.4 or sodium citrate buffer pH 5.2 in the presence of FITC-HMW-HA (1.5 ug/well), holotransferrin (10 ug/well) and excess PIP2 (500 ng/well), LMW-HA (hexamer; 10 ug/well) or HMW-HA (10 ug/well). **p<0.05 versus peptide binding control (=100);

[8] = system: Primary human T-cells pre-selected for recognizing GAD65 peptide antigen; assay: GAD65-specific primary T-cell differentiation on peptide-treated THP1-Dual cells; assay type: cell-based; conditions: peptide 0.66 uM, GAD65 1 ug/ml
Description: as §2
Another non-myeloid lineage was also tested. Primary human T-cells pre-selected for recognizing GAD65 peptide antigen, and the peptide antigen itself were purchased from Cellero LLC (Memphis, TN). THP1-Dual cells were treated with both GAD65 peptide antigen (1 ug/ml) and immodulin peptide (0.66 uM) using the protocol described in Example 2. After completion of the myeloid cell differentiation step (24 hours), supernatants were collected and 100,000 primary T-cells were added to each well in RPMI-1640 medium (100 uL per well). Plates were incubated for an additional 96 hours and cell extracts were prepared using CellLytic-M reagent (Sigma Chemical Co., St Louis, MO). Supernatants were assayed for CCL22, IL-10 and TGFbeta, and cell extracts assayed for FoxP3, all by ELISA using reagents from R&D Systems, Minneapolis, MN. The results are shown in the table below (**p<0.05 vs immX3AVD, set to=100): […]

Row | Heparin binding (fluorescence counts) [2] | Hyaluronate binding (fluorescence counts) [3] | Binding to Phosphatidylinositol [5] | Binding to PtdIns(4,5)P [PIP2] [5] | Compound | COL1 (Collagen-1A1 immunoreactivity in supernatant) [1] | CD169+ (AU) [4] [AU] | further results
1 | 6.8 ± 24.1 | 14.6 ± 22.6 | — | — | CC(C)C[C@H](NC(=O)[C@H](C)NC(=O)[C@@H]1CCCN1C(=O)[C@H](Cc1c[nH]cn1)NC(=O)[C@H](CS)NC(=O)[C@H](CCC(N)=O)NC(=O)[C@H](CCCCN)NC(=O)[C@@H]1CCCN1C(=O)[C@H](Cc1c[nH]cn1)NC(=O)[C@H](Cc1ccccc1)NC(=O)[C@H](CC(N)=O)NC(=O)CNC(=O)[C@H](CC(N)=O)NC(=O)[C@@H](N)CCCNC(=N)N)C(=O)N[C@@H](CC(=O)O)C(=O)NCC(=O)N[C@@H](CCC(N)=O)C(=O)N[C@@H](CCCNC(=N)N)C(=O)NCC(=O)N[C@@H](CCCCN)C(=O)N[C@@H](CS)C(=O)N[C@@H](Cc1c[nH]c2ccccc12)C(=O)O [imm4] (H-RNGNFHPKQCHPALDGQRGKCW-OH) | 105 | 3.8 ± 1.1 | Binding to PtdIns(3,4,5)P [PIP3] [5]: —; Binding to PtdIns(4)P [PIP1] [5]: —
2 | 95.1 ± 25.7 | 60.0 ± 8.6** | — | +++ | CC[C@H](C)[C@H](NC(=O)CNC(=O)[C@H](CCCNC(=N)N)NC(=O)[C@H](CCCCN)NC(=O)[C@H](CCCNC(=N)N)NC(=O)CNC(=O)[C@H](CCCNC(=N)N)NC(=O)[C@H](CO)NC(=O)[C@@H]1CCCN1C(=O)[C@H](CCCCN)NC(=O)[C@H](CS)NC(=O)[C@H](CCC(N)=O)NC(=O)[C@H](CCCCN)NC(=O)[C@H](CCCNC(=N)N)NC(=O)[C@H](CCCCN)NC(=O)[C@H](Cc1ccc(O)cc1)NC(=O)[C@H](Cc1ccccc1)NC(=O)CNC(=O)[C@H](CCCCN)NC(=O)[C@@H](N)CCCNC(=N)N)C(=O)N[C@@H](CS)C(=O)N[C@@H](Cc1c[nH]c2ccccc12)C(=O)O [imm5] (H-RKGFYKRKQCKPSRGRKRGICW-OH) | 93 | 36.5 ± 3.0 | FITC-PIP2 fluorescence, Background Control [6]: 1.8 ± 0.5; FITC-PIP2 fluorescence, Ferric Iron [6]: 23.4 ± 3.5**; FITC-PIP2 fluorescence, Zinc [6]: 5.0 ± 1.2**
3 | 68.7 ± 26.2 | 113.9 ± 15.7 |  |  | RKGFYKRKQCKPSRGRKRGICWAVD [immX5AVD] |  | 100.9 ± 3.5 | CCL22 [4]: 228.6 ± 8.1 pg/mL; FITC-HMW-HA binding, CONTROL ([7]; pH 5.2): 66.6 ± 7.2**; FITC-HMW-HA binding, +cold HMW-HA ([7]; pH 5.2): 9.6 ± 6.5**; FITC-HMW-HA binding, +cold LMW-HA ([7]; pH 5.2): 76.8 ± 5.9; FITC-HMW-HA binding, +cold PIP2 ([7]; pH 5.2): 52.8 ± 4.0**; FITC-HMW-HA binding, +cold HMW-HA ([7]; pH 7.4): 22.6 ± 8.8**; FITC-HMW-HA binding, +cold LMW-HA ([7]; pH 7.4): 94.9 ± 11.4; FITC-HMW-HA binding, +cold PIP2 ([7]; pH 7.4): 53.7 ± 2.1**; FITC-HMW-HA binding, CONTROL ([7]; pH 7.4, peptide binding control = 100): 100.0 ± 7.6; FoxP3 (AU) ([8]; cell extracts, immX3AVD = 100): 14.8 ± 4.3** AU; CCL22 (pg/ml) ([8]; supernatant): 58.7 ± 2.7** pg/ml; IL-10 (pg/ml) ([8]; supernatant): 870 ± 8.2** pg/ml; TGFb (pg/ml) ([8]; supernatant): 52.8 ± 7.4** pg/ml

Further lines, the compound ahead of its results:

Row | Compound | Heparin binding (fluorescence counts) [2] | Hyaluronate binding (fluorescence counts) [3] | Binding to Phosphatidylinositol [5] | Binding to PtdIns(4,5)P [PIP2] [5] | COL1 (Collagen-1A1 immunoreactivity in supernatant) [1] | CD169+ (AU) [4] [AU] | further results
4 | AFNSYELGSKGFYKKKQCRPSKGRKRGFCW [imm3K9] |  |  |  |  | 155** |  | 
5 | AFNSYELGSKGFYKKKQCRPSKGRKRGFCWAVDKY [imm3K9c] |  |  |  |  | 158** |  | 
6 | FNSYELGSLKKGFYKKKQCRPSKGRKRGFCW [imm3K8] |  |  |  |  | 98 |  | 
7 | N=C(N)NCCC[C@H](NC(=O)CNC(=O)[C@H](CCCCN)NC(=O)[C@H](CO)NC(=O)[C@@H]1CCCN1C(=O)[C@H](CCCNC(=N)N)NC(=O)[C@H](CS)NC(=O)[C@H](CCC(N)=O)NC(=O)[C@H](CCCCN)NC(=O)[C@H](CCCCN)NC(=O)[C@H](CCCCN)NC(=O)[C@H](Cc1ccc(O)cc1)NC(=O)[C@H](Cc1ccccc1)NC(=O)CNC(=O)[C@H](CCCCN)NC(=O)[C@@H](N)CCCCN)C(=O)N[C@@H](CCCCN)C(=O)N[C@@H](CCCNC(=N)N)C(=O)NCC(=O)N[C@@H](Cc1ccccc1)C(=O)N[C@@H](CS)C(=O)N[C@@H](Cc1c[nH]c2ccccc12)C(=O)O [imm3] (H-KKGFYKKKQCRPSKGRKRGFCW-OH) | 104.2 ± 22.0 | 57.2 ± 5.7** | — | +++ | 101 | 27.8 ± 3.0 | CCL22 [4]: 55.3 ± 16.1 pg/mL; Binding to PtdIns(4)P [PIP1] [5]: —; FITC-PIP2 fluorescence, Background Control [6]: 1.0 ± 0.8; FITC-PIP2 fluorescence, Ferric Iron [6]: 26.2 ± 5.7**; FITC-PIP2 fluorescence, Zinc [6]: 4.7 ± 1.3**
8 | AFNSYELGSKKGFYKKKQCRPSKGRKRGFCW [imm3K9.1] |  |  |  |  | 156** |  | 
